Assay: Conversion of the compound (2) into paliperidone in acidic fluid (dissolution test of the Example 5 tablet in Simulated Gastric Fluid)
Type: physicochemical
Protocol: Conversion of the Compound (2) into Paliperidone in Acidic Fluid
A tablet of the following composition was prepared:
Compound (2), Prosolv HD-90 and low substituted hydroxypropylcellulose were mixed for 10 minutes at 22 rpm in a free fall mixer. The blend was forced sieved over a 250 micron sieve. The blend was then mixed for another 10 minutes in a free fall mixer at 22 rpm. The sodium stearyl fumarate was sieved over an 800 micron sieve and added to the blend. The blend was mixed for another 5 minutes at 22 rpm. Tablets were compressed on the Ek-0. Tablet mass was 100 mg, tablet hardness 30 N and the tablet diameter was 8 mm.
Determination of the dissolution assay at single point or dissolution profile was performed in Simulated Gastric Fluid (SGF) without pepsin (pH=1.2) with the paddle apparatus based on USP <711>, “Apparatus 2”. The dissolution samples were immediately neutralized to pH=7 upon sampling. The amount of paliperidone and compound (2) in the neutralized dissolution samples at the specified time point(s) was determined by HPLC at 280 nm.

- time for quantitative conversion into paliperidone (Simulated Gastric Fluid without pepsin, pH=1.2, USP paddle apparatus 2, from Example 5 tablet (10.8 mg compound (2)), HPLC at 280 nm, six vessel test, FIGS. 1 and 2): approx. 10 minutes
- extent of conversion into paliperidone (acidic fluid, as shown in FIG. 1): quantitatively
Compound: Cc1nc2n(c(=O)c1CCN1CCC(c3noc4cc(F)ccc34)CC1)CCCC2OC1CCCCO1 (centres unmarked) [Compound (2)]
